Read-outs that look alike come from different tables or passages of the source.
Experiments:
Assay type in all cases: cell-based
[1] = tested on: K-562; assay: NCI60 five-dose screen; settings: Homo sapiens, K562; K-562, Leukemia, five-dose; read-out: GI50
[2] = tested on: SR; assay: NCI60 five-dose screen; settings: Homo sapiens, Leukemia, five-dose, read-out: GI50
[3] = tested on: NCI-H322M; assay: NCI60 five-dose screen; settings: Homo sapiens, Non-small Cell Lung Cancer, five-dose, read-out: GI50
[4] = tested on: NCI-H522; assay: NCI60 five-dose screen; settings: Homo sapiens; NCI-H522, Non-small Cell Lung Cancer, five-dose; read-out: GI50
[5] = tested on: HCT-116; assay: NCI60 five-dose screen; settings: Homo sapiens; HCT-116, Colon Cancer, five-dose; read-out: GI50
[6] = tested on: SF-268; assay: NCI60 five-dose screen; settings: Homo sapiens; SF-268, CNS Cancer, five-dose; read-out: GI50
[7] = tested on: SF-295; assay: NCI60 five-dose screen; settings: Homo sapiens; SF-295, CNS Cancer, five-dose; read-out: GI50
[8] = tested on: SNB-75; assay: NCI60 five-dose screen; settings: Homo sapiens; SNB-75, CNS Cancer, five-dose; read-out: GI50
[9] = tested on: U251; assay: NCI60 five-dose screen; settings: Homo sapiens, read-out: GI50
[10] = tested on: M14; assay: NCI60 five-dose screen; settings: Homo sapiens; M14, Melanoma, five-dose; read-out: GI50
[11] = tested on: MDA-MB-435; assay: NCI60 five-dose screen; settings: Homo sapiens; MDA-MB-435, Melanoma, five-dose; read-out: GI50
[12] = tested on: SK-MEL-2; assay: NCI60 five-dose screen; settings: Homo sapiens, read-out: GI50
[13] = tested on: IGROV1; assay: NCI60 five-dose screen; settings: Homo sapiens, IGROV-1; IGROV1, Ovarian Cancer, five-dose; read-out: GI50
[14] = tested on: NCI/ADR-RES; assay: NCI60 five-dose screen; settings: Homo sapiens, Ovarian Cancer, five-dose, read-out: GI50
[15] = tested on: SK-OV-3; assay: NCI60 five-dose screen; settings: Homo sapiens; SK-OV-3, Ovarian Cancer, five-dose; read-out: GI50
[16] = tested on: ACHN; assay: NCI60 five-dose screen; settings: Homo sapiens, Renal Cancer, five-dose, read-out: GI50
[17] = tested on: SN12C; assay: NCI60 five-dose screen; settings: Homo sapiens, Renal Cancer, five-dose, read-out: GI50
[18] = tested on: TK-10; assay: NCI60 five-dose screen; settings: Homo sapiens; TK-10, Renal Cancer, five-dose; read-out: GI50
[19] = tested on: UO-31; assay: NCI60 five-dose screen; settings: Homo sapiens; UO-31, Renal Cancer, five-dose; read-out: GI50
[20] = tested on: PC-3; assay: NCI60 five-dose screen; settings: Homo sapiens; PC-3, Prostate Cancer, five-dose; read-out: GI50
[21] = tested on: MDA-MB231ATCC; assay: NCI60 five-dose screen; settings: Homo sapiens, MDA-MB-231; MDA-MB231ATCC, Breast Cancer, five-dose; read-out: GI50
[22] = tested on: Non-small Cell Lung Cancer panel; assay: NCI60 five-dose screen, panel mean; settings: Homo sapiens; mean over Non-small Cell Lung Cancer panel; read-out: Mean GI50
[23] = tested on: Colon Cancer panel; assay: NCI60 five-dose screen, panel mean; settings: Homo sapiens; mean over Colon Cancer panel; read-out: Mean GI50
[24] = tested on: Melanoma panel; assay: NCI60 five-dose screen, panel mean; settings: Homo sapiens; mean over Melanoma panel; read-out: Mean GI50
[25] = tested on: Prostate Cancer panel; assay: NCI60 five-dose screen, panel mean; settings: Homo sapiens; mean over Prostate Cancer panel; read-out: Mean GI50
[26] = tested on: CCRF-CEM; assay: NCI60 one-dose screen; settings: Homo sapiens, 10 μM, one-dose, read-out: Growth percent
[27] = tested on: K-562; assay: NCI60 one-dose screen; settings: Homo sapiens, K562; K-562, 10 μM, one-dose; read-out: Growth percent
[28] = tested on: A549/ATCC; assay: NCI60 one-dose screen; settings: Homo sapiens; A549/ATCC, 10 μM, one-dose; read-out: Growth percent
[29] = tested on: NCI-H522; assay: NCI60 one-dose screen; settings: Homo sapiens; NCI-H522, 10 μM, one-dose; read-out: Growth percent
[30] = tested on: HCC-2998; assay: NCI60 one-dose screen; settings: Homo sapiens; HCC-2998, 10 μM, one-dose; read-out: Growth percent
[31] = tested on: KM12; assay: NCI60 one-dose screen; settings: Homo sapiens; KM12, 10 μM, one-dose; read-out: Growth percent
[32] = tested on: SW-620; assay: NCI60 one-dose screen; settings: Homo sapiens; SW-620, 10 μM, one-dose; read-out: Growth percent
[33] = tested on: SF-539; assay: NCI60 one-dose screen; settings: Homo sapiens; SF-539, 10 μM, one-dose; read-out: Growth percent
[34] = tested on: SNB-75; assay: NCI60 one-dose screen; settings: Homo sapiens; SNB-75, 10 μM, one-dose; read-out: Growth percent
[35] = tested on: UACC-257; assay: NCI60 one-dose screen; settings: Homo sapiens; UACC-257, 10 μM, one-dose; read-out: Growth percent
[36] = tested on: OVCAR-4; assay: NCI60 one-dose screen; settings: Homo sapiens; OVCAR-4, 10 μM, one-dose; read-out: Growth percent
[37] = tested on: SK-OV-3; assay: NCI60 one-dose screen; settings: Homo sapiens; SK-OV-3, 10 μM, one-dose; read-out: Growth percent
[38] = tested on: TK-10; assay: NCI60 one-dose screen; settings: Homo sapiens; TK-10, 10 μM, one-dose; read-out: Growth percent
[39] = tested on: 60 human tumor cell lines (NCI60); assay: NCI60 five-dose screen, overall mean; settings: 60 cell, mean over all 60 cell lines, read-out: Mean GI50
[40] = U-251, U251, CNS Cancer, five-dose
[41] = SK-MEL-2, SK-MEL-2, Melanoma, five-dose

Row | Structure (SMILES) | GI50 [1] [nM] | GI50 [2] [nM] | GI50 [3] [nM] | GI50 [4] [nM] | GI50 [5] [nM] | GI50 [6] [nM] | GI50 [7] [nM] | GI50 [8] [nM] | GI50 [9, 40] [nM] | GI50 [10] [nM] | GI50 [11] [nM] | GI50 [12, 41] [nM] | GI50 [13] [nM] | GI50 [14] [nM] | GI50 [15] [nM] | GI50 [16] [nM] | GI50 [17] [nM] | GI50 [18] [nM] | GI50 [19] [nM] | GI50 [20] [nM] | further results
1 | CC[C@]12C=CCN3CC[C@@]4(c5ccc(OC)cc5N(C)[C@H]4[C@@](O)(C(=O)OC)[C@@H]1OC(=O)CCC[P+](c1cc(C)c(OC)c(C)c1)(c1cc(C)c(OC)c(C)c1)c1cc(C)c(OC)c(C)c1)[C@@H]32 [9e] | 195 | 144 | 342 | 198 | 223 | 231 | 213 | 195 | 54 | 299 | 231 | 60 | 193 | 5110 | 232 | 319 | 159 | 277 | 1480 | 192 | GI50 ([9]; U-251, CNS cancer U251, text): < 100 nM; GI50 ([12]; SK-MEL-2, melanoma SK-MEL-2, text): < 100 nM; GI50 [21]: 293 nM; GI50 [22]: 230 nM; GI50 [23]: 240 nM; GI50 [24]: 180 nM; GI50 [25]: 250 nM; activity at 10 µM [26]: -95.7%; activity at 10 µM [27]: -97.5%; activity at 10 µM [28]: -92.9%; activity at 10 µM [29]: -98.4%; activity at 10 µM [30]: -97.9%; activity at 10 µM [31]: -95%; activity at 10 µM [32]: -95.8%; activity at 10 µM [33]: -97.2%; activity at 10 µM [34]: -98.9%; activity at 10 µM [35]: -99.3%; activity at 10 µM [36]: -98.7%; activity at 10 µM [37]: -97.7%; activity at 10 µM [38]: -99.3%
2 | CC[C@]12C=CCN3CC[C@@]4(c5ccc(OC)cc5N(C)[C@H]4[C@@](O)(C(=O)OC)[C@@H]1OC(=O)CCC[P+](c1ccccc1)(c1ccccc1)c1ccccc1)[C@@H]32 [compound 3, reference compound] | 360 | 346 | 2330 | 216 | 965 | 975 | 1450 | 750 | 371 | 790 | 278 | 322 | 237 | > 50000 | 894 | 4530 | 590 | 1480 | 10800 | 204 | GI50 [21]: 406 nM; GI50 [22]: 1110 nM; GI50 [23]: 1690 nM; GI50 [24]: 450 nM; GI50 [25]: 640 nM; GI50 [39]: 1980 nM; activity at 10 µM [26]: 11.2%; activity at 10 µM [27]: 10.4%; activity at 10 µM [28]: 13.4%; activity at 10 µM [29]: -35.4%; activity at 10 µM [30]: -22.5%; activity at 10 µM [31]: -27.2%; activity at 10 µM [32]: 17.4%; activity at 10 µM [33]: 16.2%; activity at 10 µM [34]: -4.39%; activity at 10 µM [35]: -27.3%; activity at 10 µM [36]: -3.58%; activity at 10 µM [37]: -21%; activity at 10 µM [38]: 22.3%

From PMC12028158, “Synthesis and In Vitro Evaluation of the Anticancer Effect of Novel Phosphonium Vindoline Derivatives” (International Journal of Molecular Sciences, 2025)
